Results reported in ChEMBL document CHEMBL5365504, “Psychoplastogens: A Novel Therapeutic Approach for Neurological Diseases and Disorders” (ACS Med Chem Lett, 2023).

Columns and labels:
Assay type in all cases: functional, cell-based
Settings in all cases: 72 h
Cortical neurone [1] = experiment: Induction of neurite outgrowth in Wistar rat Cortical neuron cells assessed as increase in neurite length incubated for 3 days by DAPI staining based high-content screening method
Cortical neurone [2] = experiment: Induction of neurite outgrowth in Wistar rat Cortical neuron cells assessed as increase in number of branch points incubated for 3 days by DAPI staining based high-content screening method
Cortical neurone [3] = experiment: Induction of neurite outgrowth in Wistar rat Cortical neuron cells assessed as increase in neurite number incubated for 3 days by DAPI staining based high-content screening method

Row | Structure (SMILES) | EC50 (Cortical neurone [1]) [nM] | EC50 (Cortical neurone [2]) [nM] | EC50 (Cortical neurone [3]) [nM]
1 | C[C@H](Cn1ccc2nc(OCc3ccccc3)ccc21)N(C)C | < 10 | < 10 | < 10
2 | C[C@@H](N)Cn1ccc2cc(OCc3ccc(F)cc3)ccc21 | 10 | 10 | 10
3 | C[C@@H](N)Cn1ccc2cc(OCc3ccccc3F)ccc21 | 10 | < 10 | < 10
4 | C[C@H](Cn1ccc2cc(OCc3cccc(F)c3)ccc21)N(C)C | < 10 | < 10 | < 10
5 | CCN(CC)[C@H](C)Cn1ccc2cc(OCc3ccccc3)ccc21 | < 10 | < 10 | < 10
6 | C[C@H](Cn1ccc2cc(OCc3ccccc3)ccc21)N1CCCC1 | < 10 | 10 | < 10
7 | C[C@H](Cn1ccc2cc(OCc3ccccc3F)ccc21)N(C)C | < 10 | < 10 | < 10
8 | CN[C@H](C)Cn1ccc2cc(OCc3ccccc3)ccc21 | < 10 | < 10 | < 10
9 | C[C@H](Cn1ccc2cc(OCc3ccccc3)ccc21)N(C)C | < 10 | 10 | 10
10 | C[C@@H](N)Cn1ccc2cc(OCc3cccc(F)c3)ccc21 | < 10 | < 10 | 10
11 | C[C@H](Cn1ccc2cc(OCc3ccc(F)cc3)ccc21)N(C)C | < 10 | < 10 | < 10
